Source: US9328122B2, “7-substituted Hanfangichin B derivative, and preparation method and use thereof” (HANGZHOU BENSHENG PHARMACEUTICAL CO., LTD., priority 2012, dated 2016)
Converted amounts (≈) assume the structure as drawn.

Columns and labels:
[1] = test system: CaEs-17 (esophageal cancer) cells; test: MTT cell growth inhibition, solid tumor cells; assay type: cell-based, human; details: Homo sapiens, CaEs17, CaEs-17, 72 h, MTT; for IC50: read-out: IC50; for IC90: read-out: IC90
Method in brief: (§1)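 After 72 h at 37 °C/5% CO2 with compounds at a range of concentrations, viable cells were quantified by MTT; plating was 6000 cells per well with 24 h pre-culture.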

[2] = test system: CNE (nasopharyngeal carcinoma) cells; test: MTT cell growth inhibition, solid tumor cells; assay type: cell-based, human; details: Homo sapiens, CNE, 72 h, MTT; for IC50: read-out: IC50; for IC90: read-out: IC90
Method in brief: as §1

[3] = test system: PANC-1 (pancreatic cancer) cells; test: MTT cell growth inhibition, solid tumor cells; assay type: cell-based, human; details: Homo sapiens, PANC-1, 72 h, MTT; for IC50: read-out: IC50; for IC90: read-out: IC90
Method in brief: as §1

[4] = test system: SK-OV-3 (ovarian cancer) cells; test: MTT cell growth inhibition, solid tumor cells; assay type: cell-based, human; details: Homo sapiens, SK-OV-3, 72 h, MTT; for IC50: read-out: IC50; for IC90: read-out: IC90
Method in brief: as §1

[5] = test system: PC-3 (prostate cancer) cells; test: MTT cell growth inhibition, solid tumor cells; assay type: cell-based, human; details: Homo sapiens, PC-3, 72 h, MTT; for IC50: read-out: IC50; for IC90: read-out: IC90
Method in brief: as §1

[6] = test system: RPMI 8226 (multiple myeloma) cells; test: MTT cell growth inhibition, multiple myeloma cells; assay type: cell-based, human; details: for IC50 / IC90: Homo sapiens, RPMI 8226, 72 h, MTT; for IC50: read-out: IC50; for IC90: read-out: IC90
Method in brief: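 Viable-cell readout by MTT after 72 h exposure (37° C, 5% CO2) of RPMI 8226 cells to a range of compound concentrations, added one day post-seeding. Cells were seeded at 6000 per well in RPMI-1640 containing 10% FBS.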

[7] = test system: tumor; test: Antitumor activity compared with fangchinoline, overall statement; assay type: cell-based; details: tumor type not specified
[8] = test system: A549 (human lung cancer) cells; test: MTT cell growth inhibition, solid tumor cells; assay type: cell-based; details: Homo sapiens, A549, 72 h, MTT; for IC50: read-out: IC50; for IC90: read-out: IC90
Method in brief: as §1

[9] = test system: RKO (human colon adenocarcinoma) cells; test: MTT cell growth inhibition, solid tumor cells; assay type: cell-based; details: Homo sapiens, RKO, 72 h, MTT; for IC50: read-out: IC50; for IC90: read-out: IC90
Method in brief: as §1

[10] = test system: Hela (human cervical cancer) cells; test: MTT cell growth inhibition, solid tumor cells; assay type: cell-based; details: for IC50 / IC90: Homo sapiens, Hela, 72 h, MTT; for IC50: read-out: IC50; for IC90: read-out: IC90
Method in brief: as §1

[11] = test system: MGC-803 (human gastric cancer) cells; test: MTT cell growth inhibition, solid tumor cells; assay type: cell-based; details: MGC-803, 72 h, MTT; for IC50: read-out: IC50; for IC90: read-out: IC90
Method in brief: as §1

[12] = test system: MG-63 (osteosarcoma) cells; test: MTT cell growth inhibition, solid tumor cells; assay type: cell-based; details: Homo sapiens, MG-63, 72 h, MTT; for IC50: read-out: IC50; for IC90: read-out: IC90
Method in brief: as §1

[13] = test system: Hep G2 (human liver cancer) cells; test: MTT cell growth inhibition, solid tumor cells; assay type: cell-based; details: Homo sapiens, HepG2, Hep G2, 72 h, MTT; for IC50: read-out: IC50; for IC90: read-out: IC90
Method in brief: as §1

[14] = test system: U87-MG (malignant glioma) cells; test: MTT cell growth inhibition, solid tumor cells; assay type: cell-based; details: Homo sapiens, U-87 MG, U87-MG, 72 h, MTT; for IC50: read-out: IC50; for IC90: read-out: IC90
Method in brief: as §1

[15] = test system: Becap-37 (human breast cancer) cells; test: MTT cell growth inhibition, solid tumor cells; assay type: cell-based; details: Homo sapiens, Becap-37, 72 h, MTT; for IC50: read-out: IC50; for IC90: read-out: IC90
Method in brief: as §1

[16] = test system: Hep-2 (laryngeal carcinoma) cells; test: MTT cell growth inhibition, solid tumor cells; assay type: cell-based; details: Homo sapiens, Hep-2, 72 h, MTT; for IC50: read-out: IC50; for IC90: read-out: IC90
Method in brief: as §1

[17] = test system: NB4 (acute promyelocytic leukemia) cells; test: MTT cell growth inhibition, leukemia cells; assay type: cell-based; details: Homo sapiens, NB4, 72 h, MTT; for IC50: read-out: IC50; for IC90: read-out: IC90
Method in brief: (§2)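 Seed 6000 cells/well in RPMI-1640/10% FBS; next day add derivatives at varied concentrations and mix; incubate 72 h, 37° C., 5% CO2; measure viable cells by MTT.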

[18] = test system: K562/ADR (K562adr, drug-resistant chronic myeloid leukemia) cells; test: MTT cell growth inhibition, leukemia cells; assay type: cell-based; details: Homo sapiens, K562/ADR, 72 h, MTT; for IC50: read-out: IC50; for IC90: read-out: IC90
Method in brief: as §2

[19] = relative to fangchinoline, Table 2

COc1ccc2cc1Oc1ccc(cc1)C[C@H]1c3cc(c(OC)cc3CCN1C)Oc1c(OC(=O)C3CC3)c(OC)cc3c1[C@H](C2)N(C)CC3 [BS-FC-304] showed an IC50 [1] of 2.35 µg/mL (≈ 3.47 µM), an IC90 [1] of 10.7 µg/mL (≈ 15.8 µM) and an IC50 [2] of 3.8 µg/mL (≈ 5.61 µM). The IC90 [2] was 7.2 µg/mL (≈ 10.6 µM), the IC50 [3] was 3.73 µg/mL (≈ 5.51 µM) and the IC90 [3] was 10.4 µg/mL (≈ 15.4 µM). It also gave an IC50 [4] of 6.45 µg/mL (≈ 9.53 µM), an IC90 [4] of 15.4 µg/mL (≈ 22.7 µM) and an IC50 [5] of 4.02 µg/mL (≈ 5.94 µM). It also gave an IC90 [5] of 10.5 µg/mL (≈ 15.5 µM), an IC50 [6] of 0.16 µg/mL (≈ 0.236 µM) and an IC90 [6] of 0.98 µg/mL (≈ 1.45 µM). For the same compound, the “antitumor activity compared with that of fangchinoline” value (from here on “antitumor activity compared with that”) [7] was “significantly superior”, the IC50 [8] was 2.24 µg/mL (≈ 3.31 µM) and the IC90 [8] was 5.59 µg/mL (≈ 8.26 µM). For the same compound, the IC50 [9] was 1.79 µg/mL (≈ 2.64 µM), the IC90 [9] was 3.45 µg/mL (≈ 5.1 µM) and the IC50 [10] was 1.87 µg/mL (≈ 2.76 µM). For the same compound, the IC90 [10] was 4.65 µg/mL (≈ 6.87 µM), the IC50 [11] was 1.87 µg/mL (≈ 2.76 µM) and the IC90 [11] was 10.2 µg/mL (≈ 15.1 µM). It also gave an IC50 [12] of 2.32 µg/mL (≈ 3.43 µM), an IC90 [12] of 5.72 µg/mL (≈ 8.45 µM) and an IC50 [13] of 2.49 µg/mL (≈ 3.68 µM). For the same compound, the IC90 [13] was 9.42 µg/mL (≈ 13.9 µM), the IC50 [14] was 1.68 µg/mL (≈ 2.48 µM) and the IC90 [14] was 4.97 µg/mL (≈ 7.34 µM). For the same compound, the IC50 [15] was 3.15 µg/mL (≈ 4.65 µM), the IC90 [15] was 7.22 µg/mL (≈ 10.7 µM) and the IC50 [16] was 4.95 µg/mL (≈ 7.31 µM). For the same compound, the IC90 [16] was 12.2 µg/mL (≈ 18.1 µM), the IC50 [17] was 1.24 µg/mL (≈ 1.83 µM) and the IC90 [17] was 3.99 µg/mL (≈ 5.9 µM). It also gave an IC50 [18] of 0.44 µg/mL (≈ 0.65 µM) and an IC90 [18] of 3 µg/mL (≈ 4.43 µM).

With COc1ccc2cc1Oc1ccc(cc1)C[C@H]1c3cc(c(OC)cc3CCN1C)Oc1c(OCC(O)CN3CCSCC3)c(OC)cc3c1[C@H](C2)N(C)CC3 (some centres unmarked) [BS-FC-417] the IC50 [1] was 1.82 µg/mL (≈ 2.37 µM), the IC90 [1] was 7.67 µg/mL (≈ 9.99 µM) and the IC50 [2] was 1.66 µg/mL (≈ 2.16 µM). The IC90 [2] was 5.24 µg/mL (≈ 6.82 µM), the IC50 [3] was 5.55 µg/mL (≈ 7.23 µM) and the IC90 [3] was 9 µg/mL (≈ 11.7 µM). The IC50 [4] was 4.6 µg/mL (≈ 5.99 µM), the IC90 [4] was 12.9 µg/mL (≈ 16.8 µM) and the IC50 [5] was 3.68 µg/mL (≈ 4.79 µM). For the same compound, the IC90 [5] was 9.36 µg/mL (≈ 12.2 µM), the IC50 [6] was 0.02 µg/mL (≈ 0.026 µM) and the IC90 [6] was 0.5 µg/mL (≈ 0.651 µM). For the same compound, the “anti-RPMI8226 activity increase over fangchinoline” value [6, 19] was 2 fold, the “antitumor activity compared with that” value [7] was “significantly superior” and the IC50 [8] was 3.77 µg/mL (≈ 4.91 µM). For the same compound, the IC90 [8] was 11.7 µg/mL (≈ 15.2 µM), the IC50 [9] was 1.09 µg/mL (≈ 1.42 µM) and the IC90 [9] was 2.27 µg/mL (≈ 2.96 µM). It also gave an IC50 [10] of 1.73 µg/mL (≈ 2.25 µM), an IC90 [10] of 4.47 µg/mL (≈ 5.82 µM) and an IC50 [11] of 1.49 µg/mL (≈ 1.94 µM). For the same compound, the IC90 [11] was 12.9 µg/mL (≈ 16.8 µM), the IC50 [12] was 2 µg/mL (≈ 2.6 µM) and the IC90 [12] was 3.6 µg/mL (≈ 4.69 µM). The IC50 [13] was 1.8 µg/mL (≈ 2.34 µM), the IC90 [13] was 5.79 µg/mL (≈ 7.54 µM) and the IC50 [14] was 1.49 µg/mL (≈ 1.94 µM). The IC90 [14] was 4.25 µg/mL (≈ 5.53 µM), the IC50 [15] was 2.42 µg/mL (≈ 3.15 µM) and the IC90 [15] was 6.16 µg/mL (≈ 8.02 µM). The IC50 [16] was 2.36 µg/mL (≈ 3.07 µM), the IC90 [16] was 6.03 µg/mL (≈ 7.85 µM) and the IC50 [17] was 0.99 µg/mL (≈ 1.29 µM). It also gave an IC90 [17] of 2.86 µg/mL (≈ 3.72 µM), an IC50 [18] of 0.19 µg/mL (≈ 0.247 µM) and an IC90 [18] of 2.15 µg/mL (≈ 2.8 µM).

COc1cc(OC)cc(C(=O)Oc2c(OC)cc3c4c2Oc2cc5c(cc2OC)CCN(C)[C@H]5Cc2ccc(cc2)Oc2cc(ccc2OC)C[C@@H]4N(C)CC3)c1 [BS-FC-311] gave an IC50 [1] of 1.95 µg/mL (≈ 2.52 µM), an IC90 [1] of 7.37 µg/mL (≈ 9.54 µM) and an IC50 [2] of 1.83 µg/mL (≈ 2.37 µM). The IC90 [2] was 5.04 µg/mL (≈ 6.52 µM), the IC50 [3] was 2.95 µg/mL (≈ 3.82 µM) and the IC90 [3] was 4.8 µg/mL (≈ 6.21 µM). For the same compound, the IC50 [4] was 2.87 µg/mL (≈ 3.71 µM), the IC90 [4] was 3.96 µg/mL (≈ 5.12 µM) and the IC50 [5] was 3.08 µg/mL (≈ 3.99 µM). It also gave an IC90 [5] of 8.39 µg/mL (≈ 10.9 µM), an IC50 [6] of 0.13 µg/mL (≈ 0.168 µM) and an IC90 [6] of 0.49 µg/mL (≈ 0.634 µM). For the same compound, the “antitumor activity compared with that” value [7] was “significantly superior”, the IC50 [8] was 1.36 µg/mL (≈ 1.76 µM) and the IC90 [8] was 4.38 µg/mL (≈ 5.67 µM). It also gave an IC50 [9] of 1.32 µg/mL (≈ 1.71 µM), an IC90 [9] of 3.24 µg/mL (≈ 4.19 µM) and an IC50 [10] of 0.5 µg/mL (≈ 0.647 µM). The IC90 [10] was 2.89 µg/mL (≈ 3.74 µM), the “anti-Hela activity increase over fangchinoline” value [10, 19] was about 4 fold and the IC50 [11] was 1.4 µg/mL (≈ 1.81 µM). It also gave an IC90 [11] of 4.79 µg/mL (≈ 6.2 µM), an IC50 [12] of 2 µg/mL (≈ 2.59 µM) and an IC90 [12] of 4.37 µg/mL (≈ 5.65 µM). The IC50 [13] was 1.4 µg/mL (≈ 1.81 µM), the IC90 [13] was 2.76 µg/mL (≈ 3.57 µM) and the IC50 [14] was 1.25 µg/mL (≈ 1.62 µM). For the same compound, the IC90 [14] was 3.8 µg/mL (≈ 4.92 µM), the IC50 [15] was 1.53 µg/mL (≈ 1.98 µM) and the IC90 [15] was 3.03 µg/mL (≈ 3.92 µM). The IC50 [16] was 1.64 µg/mL (≈ 2.12 µM), the IC90 [16] was 4.85 µg/mL (≈ 6.28 µM) and the IC50 [17] was 0.22 µg/mL (≈ 0.285 µM). It also gave an IC90 [17] of 0.96 µg/mL (≈ 1.24 µM), an IC50 [18] of 0.48 µg/mL (≈ 0.621 µM) and an IC90 [18] of 2.83 µg/mL (≈ 3.66 µM).
